Experiments:
Format in all cases: functional
T47D = test: Growth inhibition of human T47D cells assessed as cell growth at 10 uM incubated for 48 hrs by sulforhodamine B assay relative to control; details: read-out: Activity
UACC-257 = test: Growth inhibition of human UACC257 cells assessed as cell growth at 10 uM incubated for 48 hrs by sulforhodamine B assay relative to control; details: UACC-257, 48 h, read-out: Activity
UACC-62 = test: Growth inhibition of human UACC62 cells assessed as cell growth at 10 uM incubated for 48 hrs by sulforhodamine B assay relative to control; details: UACC-62, 48 h, read-out: Activity
NCI-H226 = test: Growth inhibition of human NCI-H226 cells assessed as cell growth at 10 uM incubated for 48 hrs by sulforhodamine B assay relative to control; details: NCI-H226, 48 h, read-out: Activity
MDA-MB-468 = test: Growth inhibition of human MDA-MB-468 cells assessed as cell growth at 10 uM incubated for 48 hrs by sulforhodamine B assay relative to control; details: MDA-MB-468, 48 h, read-out: Activity
SK-OV-3 = test: Growth inhibition of human SKOV3 cells assessed as cell growth at 10 uM incubated for 48 hrs by sulforhodamine B assay relative to control; details: SK-OV-3, 48 h, read-out: Activity
CCRF-CEM = test: Growth inhibition of human CCRF-CEM cells assessed as cell growth at 10 uM incubated for 48 hrs by sulforhodamine B assay relative to control; details: read-out: Activity
SNB-75 = test: Growth inhibition of human SNB75 cells assessed as cell growth at 10 uM incubated for 48 hrs by sulforhodamine B assay relative to control; details: SNB-75, 48 h, read-out: Activity
NCI-H460 = test: Growth inhibition of human NCI-H460 cells assessed as cell growth at 10 uM incubated for 48 hrs by sulforhodamine B assay relative to control; details: NCI-H460, 48 h, read-out: Activity
NCI-H322M = test: Growth inhibition of human NCI-H322M cells assessed as cell growth at 10 uM incubated for 48 hrs by sulforhodamine B assay relative to control; details: read-out: Activity
OVCAR-4 = test: Growth inhibition of human OVCAR4 cells assessed as cell growth at 10 uM incubated for 48 hrs by sulforhodamine B assay relative to control; details: OVCAR-4, 48 h, read-out: Activity
MOLT-4 = test: Growth inhibition of human MOLT4 cells assessed as cell growth at 10 uM incubated for 48 hrs by sulforhodamine B assay relative to control; details: MOLT-4, 48 h, read-out: Activity
IGROV-1 = test: Growth inhibition of human IGROV1 cells assessed as cell growth at 10 uM incubated for 48 hrs by sulforhodamine B assay relative to control; details: IGROV-1, 48 h, read-out: Activity
SR = test: Growth inhibition of human SR cells assessed as cell growth at 10 uM incubated for 48 hrs by sulforhodamine B assay relative to control; details: read-out: Activity
LOX IMVI = test: Growth inhibition of human LOXIMVI cells assessed as cell growth at 10 uM incubated for 48 hrs by sulforhodamine B assay relative to control; details: read-out: Activity
K562 = test: Growth inhibition of human K562 cells assessed as cell growth at 10 uM incubated for 48 hrs by sulforhodamine B assay relative to control; details: K562, 48 h, read-out: Activity
U-251 = test: Growth inhibition of human U251 cells assessed as cell growth at 10 uM incubated for 48 hrs by sulforhodamine B assay relative to control; details: U-251, 48 h, read-out: Activity
HOP-62 = test: Growth inhibition of human HOP62 cells assessed as cell growth at 10 uM incubated for 48 hrs by sulforhodamine B assay relative to control; details: HOP-62, 48 h, read-out: Activity
SF-539 = test: Growth inhibition of human SF539 cells assessed as cell growth at 10 uM incubated for 48 hrs by sulforhodamine B assay relative to control; details: SF-539, 48 h, read-out: Activity
SK-MEL-5 = test: Growth inhibition of human SK-MEL-5 cells assessed as cell growth at 10 uM incubated for 48 hrs by sulforhodamine B assay relative to control; details: SK-MEL-5, 48 h, read-out: Activity
MDA-MB-231 = test: Growth inhibition of human MDA-MB-231 cells assessed as cell growth at 10 uM incubated for 48 hrs by sulforhodamine B assay relative to control; details: MDA-MB-231, 48 h, read-out: Activity
UO-31 = test: Growth inhibition of human UO31 cells assessed as cell growth at 10 uM incubated for 48 hrs by sulforhodamine B assay relative to control; details: UO-31, 48 h, read-out: Activity
RPMI-8226 = test: Growth inhibition of human RPMI8226 cells assessed as cell growth at 10 uM incubated for 48 hrs by sulforhodamine B assay relative to control; details: RPMI-8226, 48 h, read-out: Activity
OVCAR-5 = test: Growth inhibition of human OVCAR5 cells assessed as cell growth at 10 uM incubated for 48 hrs by sulforhodamine B assay relative to control; details: OVCAR-5, 48 h, read-out: Activity
HCT-15 = test: Growth inhibition of human HCT15 cells assessed as cell growth at 10 uM incubated for 48 hrs by sulforhodamine B assay relative to control; details: HCT-15, 48 h, read-out: Activity
CAKI-1 = test: Growth inhibition of human Caki1 cells assessed as cell growth at 10 uM incubated for 48 hrs by sulforhodamine B assay relative to control; details: CAKI-1, 48 h, read-out: Activity
OVCAR-8 = test: Growth inhibition of human OVCAR8 cells assessed as cell growth at 10 uM incubated for 48 hrs by sulforhodamine B assay relative to control; details: OVCAR-8, 48 h, read-out: Activity
HCT-116 = test: Growth inhibition of human HCT116 cells assessed as cell growth at 10 uM incubated for 48 hrs by sulforhodamine B assay relative to control; details: HCT-116, 48 h, read-out: Activity
MDA-MB-435 = test: Growth inhibition of human MDA-MB-435 cells assessed as cell growth at 10 uM incubated for 48 hrs by sulforhodamine B assay relative to control; details: MDA-MB-435, 48 h, read-out: Activity
SF-295 = test: Growth inhibition of human SF295 cells assessed as cell growth at 10 uM incubated for 48 hrs by sulforhodamine B assay relative to control; details: SF-295, 48 h, read-out: Activity
DU-145 = test: Growth inhibition of human DU145 cells assessed as cell growth at 10 uM incubated for 48 hrs by sulforhodamine B assay relative to control; details: DU-145, 48 h, read-out: Activity
HCC 2998 = test: Growth inhibition of human HCC2998 cells assessed as cell growth at 10 uM incubated for 48 hrs by sulforhodamine B assay relative to control; details: HCC 2998, 48 h, read-out: Activity

Compound | growth at 10 µM (T47D) [%] | growth at 10 µM (UACC-257) [%] | growth at 10 µM (UACC-62) [%] | growth at 10 µM (NCI-H226) [%] | growth at 10 µM (MDA-MB-468) [%] | growth at 10 µM (SK-OV-3) [%] | growth at 10 µM (CCRF-CEM) [%] | growth at 10 µM (SNB-75) [%] | growth at 10 µM (NCI-H460) [%] | growth at 10 µM (NCI-H322M) [%] | growth at 10 µM (OVCAR-4) [%] | growth at 10 µM (MOLT-4) [%] | growth at 10 µM (IGROV-1) [%] | growth at 10 µM (SR) [%] | growth at 10 µM (LOX IMVI) [%] | growth at 10 µM (K562) [%] | growth at 10 µM (U-251) [%] | growth at 10 µM (HOP-62) [%] | growth at 10 µM (SF-539) [%] | growth at 10 µM (SK-MEL-5) [%] | further results
COc1cc(Cl)cc(-c2nn(-c3cccc(NC(=O)c4cc(C(F)(F)F)cc(C(F)(F)F)c4)c3)cc2-c2ccncc2)c1 | 53.4 | 79.3 | 81.4 | 76 | 46.5 | 83.4 | 57.1 | 60.8 | 41 | 80.3 | 72.1 | 55.3 | 100 | 41 | 76.1 | 38 | 60.7 | 103 | 80 | 67.3 | growth at 10 µM (MDA-MB-231): 56.7%; growth at 10 µM (UO-31): 54.3%; growth at 10 µM (RPMI-8226): 43.6%; growth at 10 µM (OVCAR-5): 83%; growth at 10 µM (HCT-15): 58.6%; growth at 10 µM (CAKI-1): 68.6%; growth at 10 µM (OVCAR-8): 55.4%; growth at 10 µM (HCT-116): 35.2%; growth at 10 µM (MDA-MB-435): 80%; growth at 10 µM (SF-295): 42.1%; growth at 10 µM (DU-145): 78.2%; growth at 10 µM (HCC 2998): 78.3%
COc1cc(Cl)cc(-c2nn(-c3cccc(NC(=O)c4ccc(N5CCOCC5)c(C(F)(F)F)c4)c3)cc2-c2ccncc2)c1 | 49.2 | 63.5 | 67.8 | 64.2 | 50.2 | 75.7 | 31.7 | 34.9 | 29.3 | 89.6 | 67.9 | 38.3 | 96.5 | 18.4 | 47.3 | 4.03 | 32.3 | 52.1 | 52.1 | 71.5 | growth at 10 µM (MDA-MB-231): 11.4%; growth at 10 µM (UO-31): 40.7%; growth at 10 µM (RPMI-8226): 25.2%; growth at 10 µM (OVCAR-5): 78.4%; growth at 10 µM (HCT-15): 17.2%; growth at 10 µM (CAKI-1): 46.7%; growth at 10 µM (OVCAR-8): 42.1%; growth at 10 µM (HCT-116): 47.8%; growth at 10 µM (MDA-MB-435): 63.4%; growth at 10 µM (SF-295): 2.6%; growth at 10 µM (DU-145): 93.3%; growth at 10 µM (HCC 2998): 52.3%
COc1cc(Cl)cc(-c2nn(-c3cccc(NC(=O)Nc4ccc(Cl)c(C(F)(F)F)c4)c3)cc2-c2ccncc2)c1 | 8.1 | -25.9 | 6.62 | -2.82 | -14.4 | 11.9 | 1.88 | 14.5 | 2.76 | 18.7 | 16.6 | -9.68 | 30.2 | -27.5 | 4.81 | 8.93 | -48.3 | 13.5 | -1.17 | -71.2 | growth at 10 µM (MDA-MB-231): -30.8%; growth at 10 µM (UO-31): 11.1%; growth at 10 µM (RPMI-8226): -29.1%; growth at 10 µM (OVCAR-5): 19.2%; growth at 10 µM (HCT-15): 7.28%; growth at 10 µM (CAKI-1): 9.38%; growth at 10 µM (OVCAR-8): 8.71%; growth at 10 µM (HCT-116): 3.39%; growth at 10 µM (MDA-MB-435): -16.8%; growth at 10 µM (SF-295): -7.48%; growth at 10 µM (DU-145): 15.2%; growth at 10 µM (HCC 2998): 18.1%
O=C(Nc1cccc(-n2cc(-c3ccncc3)c(-c3cc(O)cc(Cl)c3)n2)c1)c1cc(C(F)(F)F)cc(C(F)(F)F)c1 | 26.3 | 71 | 69.3 | 96 | 31.2 | 68.8 | 26.9 | 52.7 | 19.9 | 74.1 | 59.6 | 19.5 | 73 | 3.15 | 10.5 | 20.4 | 37.2 | 58.3 | 75.5 | 64.5 | growth at 10 µM (MDA-MB-231): -34.6%; growth at 10 µM (UO-31): 49.1%; growth at 10 µM (RPMI-8226): 32.1%; growth at 10 µM (OVCAR-5): 70.7%; growth at 10 µM (HCT-15): 30.1%; growth at 10 µM (CAKI-1): 58.5%; growth at 10 µM (OVCAR-8): 39.6%; growth at 10 µM (HCT-116): 24.6%; growth at 10 µM (MDA-MB-435): 45.6%; growth at 10 µM (SF-295): 15%; growth at 10 µM (DU-145): 62.1%; growth at 10 µM (HCC 2998): 28.9%

Source: ChEMBL document CHEMBL4308841, “Synthesis, in vitro antiproliferative activity, and kinase inhibitory effects of pyrazole-containing diarylureas and diarylamides” (Eur J Med Chem, 2018)
